Data published in ChEMBL document CHEMBL1201862, “PubChem BioAssay data set” (2004).
Active and inactive are the calls of the source. No rule for the calls is given here.

Legend:
Format in all cases: functional
[1] = target: Serine/threonine-protein kinase pim-3 (Homo sapiens, UniProt Q86V86);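 also: value obtained as one member of a broad kinase panel profiling effort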
[2] = target: RAC-alpha serine/threonine-protein kinase (Homo sapiens, UniProt P31749);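 also: AKT1 affinity measured as one member of a kinome-wide kinase profiling panel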
[3] = target: Calcium/calmodulin-dependent protein kinase type II subunit alpha (Homo sapiens, UniProt Q9UQM7); experiment: Navigating the Kinome. Panel member name: CAMK2A
[4] = target: Tyrosine-protein kinase FRK (Homo sapiens, UniProt P42685);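 also: FRK tested as one member of a kinome panel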
Sequence of Tyrosine-protein kinase FRK (P42685 whole entry): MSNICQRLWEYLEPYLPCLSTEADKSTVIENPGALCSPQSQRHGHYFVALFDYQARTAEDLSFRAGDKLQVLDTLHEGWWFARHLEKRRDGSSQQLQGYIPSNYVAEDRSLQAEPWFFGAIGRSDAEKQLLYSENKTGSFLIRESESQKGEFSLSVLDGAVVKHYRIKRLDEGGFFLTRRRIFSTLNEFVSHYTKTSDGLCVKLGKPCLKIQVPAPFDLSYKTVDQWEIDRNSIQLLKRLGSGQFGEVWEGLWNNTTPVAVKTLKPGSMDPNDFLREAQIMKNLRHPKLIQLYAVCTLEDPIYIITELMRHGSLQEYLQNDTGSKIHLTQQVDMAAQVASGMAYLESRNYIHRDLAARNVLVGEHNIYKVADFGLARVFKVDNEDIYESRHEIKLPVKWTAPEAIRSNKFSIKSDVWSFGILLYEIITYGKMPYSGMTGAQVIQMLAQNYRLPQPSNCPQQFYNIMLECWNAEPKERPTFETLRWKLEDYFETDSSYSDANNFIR

Sequence of RAC-alpha serine/threonine-protein kinase (P31749 whole entry): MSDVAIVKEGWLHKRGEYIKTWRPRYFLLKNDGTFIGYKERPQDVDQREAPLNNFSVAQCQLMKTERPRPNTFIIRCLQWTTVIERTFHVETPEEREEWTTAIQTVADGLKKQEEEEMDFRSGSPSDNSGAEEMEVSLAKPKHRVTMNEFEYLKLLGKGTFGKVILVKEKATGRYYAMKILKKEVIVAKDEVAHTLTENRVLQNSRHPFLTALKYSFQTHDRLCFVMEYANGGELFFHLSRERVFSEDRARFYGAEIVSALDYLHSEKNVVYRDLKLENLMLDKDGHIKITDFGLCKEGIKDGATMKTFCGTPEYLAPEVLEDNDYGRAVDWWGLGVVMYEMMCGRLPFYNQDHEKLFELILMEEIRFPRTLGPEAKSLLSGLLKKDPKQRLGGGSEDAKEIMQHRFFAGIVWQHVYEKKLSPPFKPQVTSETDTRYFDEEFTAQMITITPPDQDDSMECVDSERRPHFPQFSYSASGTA
Sequence of Calcium/calmodulin-dependent protein kinase type II subunit alpha (Q9UQM7 whole entry): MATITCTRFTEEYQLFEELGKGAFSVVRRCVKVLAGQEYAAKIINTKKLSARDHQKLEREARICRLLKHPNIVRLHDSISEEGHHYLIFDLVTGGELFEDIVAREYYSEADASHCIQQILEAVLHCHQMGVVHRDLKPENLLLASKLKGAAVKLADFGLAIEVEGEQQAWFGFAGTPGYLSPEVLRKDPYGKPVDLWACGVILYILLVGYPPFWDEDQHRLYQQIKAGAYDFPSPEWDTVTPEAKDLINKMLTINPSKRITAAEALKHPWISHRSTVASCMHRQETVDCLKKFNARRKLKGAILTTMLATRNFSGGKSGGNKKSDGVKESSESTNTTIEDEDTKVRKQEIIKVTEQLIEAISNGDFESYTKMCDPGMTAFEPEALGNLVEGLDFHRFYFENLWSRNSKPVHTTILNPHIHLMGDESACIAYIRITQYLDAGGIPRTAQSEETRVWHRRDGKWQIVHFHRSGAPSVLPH

- Ki [1]: 316 nM (active)
- Ki [2]: 501 nM (active)
- Ki [3]: 3160 nM (active)
- Ki [4]: > 2510 nM (inactive)
Compound: CN1CCN(c2nc(C3=C(c4c[nH]c5ccccc45)C(=O)NC3=O)c3ccccc3n2)CC1 [SOTRASTAURIN]
